Assay results reported in patent US9040458B2, “Safening composition of 6-(trisubstituded phenyl)-4-amino-2-pyridinecarboxylate herbicides and cloquintocet-mexyl for cereal crops” (Dow AgroSciences LLC, priority 2008, dated 2015).

Tests used:
Assay in all cases: Postemergence herbicidal activity, greenhouse, visual injury
Conditions in all cases: 20-22 d
POLCO (wild buckwheat) = format: in vivo, Polygonum convolvulus
Method: (§1) Seeds of the desired test plant species were planted in Sun Gro MetroMix® 306 planting mixture, which typically has a pH of 6.0 to 6.8 and an organic matter content of about 30 percent, in plastic pots with a surface area of 103.2 square centimeters (cm^2). When required to ensure good germination and healthy plants, a fungicide treatment and/or other chemical or physical treatment was applied. The plants were grown for 7-36 days (d) in a greenhouse with an approximate […] photoperiod which was maintained at about 18° C. during the day and 17° C. during the night. Nutrients and water were added on a regular basis and supplemental lighting was provided with overhead metal halide 1000-Watt lamps as necessary. The plants were employed for testing when they reached the second or third true leaf stage.
(§2) Weighed amounts of esters (methyl) or salts (TEA [triethylammonium], potassium [K]) of 4-amino-3-chloro-6-(4-chloro-2-fluoro-3-methoxyphenyl)pyridine-2-carboxylic acid (Compound 1) were dissolved in a volume of 97:3 volume/volume (v/v) acetone/dimethylsulfoxide (DMSO) to obtain stock solutions. […] The concentrated stock solutions were diluted with an aqueous mixture of 1.5% v/v of Agri-dex crop oil concentrate to provide the appropriate application rates. Compound requirements are based upon a 12 mL application volume at a rate of 187 liters per hectare (L/ha). Stocks solutions of the safeners were prepared following the same procedure. Spray solutions of the safeners and experimental compound mixtures were prepared by adding the appropriate volume of both stock solutions to the appropriate amount of dilution solution to form a 12 mL spray solution with active ingredients in two-way combinations. Formulated compounds were applied to the plant material with an overhead Mandel track sprayer equipped with 8002E nozzles calibrated to deliver 187 L/ha over an application area of 0.503 square meters (m^2) at a spray height of 18 inches (43 centimeters (cm)) above average plant canopy. Control plants were sprayed in the same manner with the solvent blank.
(§3) The treated plants and control plants were placed in a greenhouse as described above and watered by sub-irrigation to prevent wash-off of the test compounds. After 20-22 d, the condition of the test plants as compared with that of the control plants was determined visually and scored on a scale of 0 to 100 percent where 0 corresponds to no injury and 100 corresponds to complete kill.
(§4) Colby's equation was used to determine the herbicidal effects expected from the mixtures (Colby, S. R., Calculation of the synergistic and antagonistic response of herbicide combinations. Weeds 1967, 15, 20-22.).
(§5) The following equation was used to calculate the expected activity of mixtures containing two active ingredients, A and B: Expected=A+B−(A×B/100)
(§6) A=observed efficacy of active ingredient A at the same concentration as used in the mixture.
(§7) B=observed efficacy of active ingredient B at the same concentration as used in the mixture.

[1] = test system: VIOTR = Viola tricolor (wild pansy); format: in vivo
Method: as §1, §2, §3, §4, §5, §6, §7

[2] = test system: VERPE = Veronica persica (bird's-eye speedwell); format: in vivo
Method: as §1, §2, §3, §4, §5, §6, §7

[3] = test system: MATCH = Matricaria chamomila (scented mayweed); format: in vivo
Method: as §1, §2, §3, §4, §5, §6, §7

[4] = test system: SASKR = Salsola iberica (Russian thistle); format: in vivo
Method: as §1, §2, §3, §4, §5, §6, §7

[5] = test system: GALAP = Galium aparine (cleavers); format: in vivo
Method: as §1, §2, §3, §4, §5, §6, §7

[6] = test system: STEME = Stellaria media (common chickweed); format: in vivo
Method: as §1, §2, §3, §4, §5, §6, §7

[7] = test system: KCHSC = Kochia scoparia (kochia); format: in vivo
Method: as §1, §2, §3, §4, §5, §6, §7

PAPRH (corn poppy) = format: in vivo, Papaver rhoeas
Method: as §1, §2, §3, §4, §5, §6, §7

[8] = test system: LAMPU (purple deadnettle); format: in vivo, Lamium purpureum
Method: as §1, §2, §3, §4, §5, §6, §7

CCCCCC(C)OC(=O)COc1ccc(Cl)c2cccnc12 (stereo not shown) [Cloquintocet-mexyl, cloquintocet-mexyl]
0%: POLCO Ob (observed injury) (POLCO (wild buckwheat); applied alone at 1.1 g/ha) | POLCO Ob (observed injury) (POLCO (wild buckwheat); applied alone at 2.2 g/ha) | POLCO Ob (observed injury) (POLCO (wild buckwheat); applied alone at 4.4 g/ha) | POLCO Ob (observed injury) (POLCO (wild buckwheat); applied alone at 8.75 g/ha) | POLCO Ob (observed injury) (POLCO (wild buckwheat); applied alone at 17.5 g/ha) | POLCO Ob (observed injury) (POLCO (wild buckwheat); applied alone at 35 g/ha) | POLCO Ob (observed injury) (POLCO (wild buckwheat); applied alone at 70 g/ha) | VIOTR Ob (observed injury) ([1]; applied alone at 1.0937 g/ha) | VIOTR Ob (observed injury) ([1]; applied alone at 1.1 g/ha) | VIOTR Ob (observed injury) ([1]; applied alone at 2.1875 g/ha) | VIOTR Ob (observed injury) ([1]; applied alone at 2.2 g/ha) | VIOTR Ob (observed injury) ([1]; applied alone at 4.375 g/ha) | VIOTR Ob (observed injury) ([1]; applied alone at 4.4 g/ha) | VIOTR Ob (observed injury) ([1]; applied alone at 8.75 g/ha) | VIOTR Ob (observed injury) ([1]; applied alone at 17.5 g/ha) | VIOTR Ob (observed injury) ([1]; applied alone at 35 g/ha) | VIOTR Ob (observed injury) ([1]; applied alone at 70 g/ha) | VERPE Ob (observed injury) ([2]; applied alone at 1.0937 g/ha) | VERPE Ob (observed injury) ([2]; applied alone at 1.1 g/ha) | VERPE Ob (observed injury) ([2]; applied alone at 2.1875 g/ha) | VERPE Ob (observed injury) ([2]; applied alone at 2.2 g/ha) | VERPE Ob (observed injury) ([2]; applied alone at 4.375 g/ha) | VERPE Ob (observed injury) ([2]; applied alone at 4.4 g/ha) | VERPE Ob (observed injury) ([2]; applied alone at 8.75 g/ha) | VERPE Ob (observed injury) ([2]; applied alone at 17.5 g/ha) | VERPE Ob (observed injury) ([2]; applied alone at 35 g/ha) | VERPE Ob (observed injury) ([2]; applied alone at 70 g/ha) | MATCH Ob (observed injury) ([3]; applied alone at 1.0937 g/ha) | MATCH Ob (observed injury) ([3]; applied alone at 1.1 g/ha) | MATCH Ob (observed injury) ([3]; applied alone at 2.1875 g/ha) | MATCH Ob (observed injury) ([3]; applied alone at 2.2 g/ha) | MATCH Ob (observed injury) ([3]; applied alone at 4.375 g/ha) | MATCH Ob (observed injury) ([3]; applied alone at 4.4 g/ha) | MATCH Ob (observed injury) ([3]; applied alone at 8.75 g/ha) | MATCH Ob (observed injury) ([3]; applied alone at 17.5 g/ha) | MATCH Ob (observed injury) ([3]; applied alone at 35 g/ha) | MATCH Ob (observed injury) ([3]; applied alone at 70 g/ha) | SASKR Ob (observed injury) ([4]; applied alone at 1.0937 g/ha) | SASKR Ob (observed injury) ([4]; applied alone at 1.1 g/ha) | SASKR Ob (observed injury) ([4]; applied alone at 2.1875 g/ha) | SASKR Ob (observed injury) ([4]; applied alone at 2.2 g/ha) | SASKR Ob (observed injury) ([4]; applied alone at 4.375 g/ha) | SASKR Ob (observed injury) ([4]; applied alone at 4.4 g/ha) | SASKR Ob (observed injury) ([4]; applied alone at 8.75 g/ha) | SASKR Ob (observed injury) ([4]; applied alone at 17.5 g/ha) | SASKR Ob (observed injury) ([4]; applied alone at 35 g/ha) | SASKR Ob (observed injury) ([4]; applied alone at 70 g/ha) | GALAP Ob (observed injury) ([5]; applied alone at 1.1 g/ha) | GALAP Ob (observed injury) ([5]; applied alone at 2.2 g/ha) | GALAP Ob (observed injury) ([5]; applied alone at 4.4 g/ha) | GALAP Ob (observed injury) ([5]; applied alone at 8.75 g/ha) | GALAP Ob (observed injury) ([5]; applied alone at 17.5 g/ha) | GALAP Ob (observed injury) ([5]; applied alone at 35 g/ha) | GALAP Ob (observed injury) ([5]; applied alone at 70 g/ha) | STEME Ob (observed injury) ([6]; applied alone at 1.1 g/ha) | STEME Ob (observed injury) ([6]; applied alone at 2.2 g/ha) | STEME Ob (observed injury) ([6]; applied alone at 4.4 g/ha) | STEME Ob (observed injury) ([6]; applied alone at 8.75 g/ha) | STEME Ob (observed injury) ([6]; applied alone at 17.5 g/ha) | STEME Ob (observed injury) ([6]; applied alone at 35 g/ha) | STEME Ob (observed injury) ([6]; applied alone at 70 g/ha) | KCHSC Ob (observed injury) ([7]; applied alone at 1.0937 g/ha) | KCHSC Ob (observed injury) ([7]; applied alone at 1.1 g/ha) | KCHSC Ob (observed injury) ([7]; applied alone at 2.1875 g/ha) | KCHSC Ob (observed injury) ([7]; applied alone at 2.2 g/ha) | KCHSC Ob (observed injury) ([7]; applied alone at 4.375 g/ha) | KCHSC Ob (observed injury) ([7]; applied alone at 4.4 g/ha) | KCHSC Ob (observed injury) ([7]; applied alone at 8.75 g/ha) | KCHSC Ob (observed injury) ([7]; applied alone at 17.5 g/ha) | KCHSC Ob (observed injury) ([7]; applied alone at 35 g/ha) | KCHSC Ob (observed injury) ([7]; applied alone at 70 g/ha) | PAPRH Ob (observed injury) (PAPRH (corn poppy); applied alone at 1.1 g/ha) | PAPRH Ob (observed injury) (PAPRH (corn poppy); applied alone at 2.2 g/ha) | PAPRH Ob (observed injury) (PAPRH (corn poppy); applied alone at 4.4 g/ha) | PAPRH Ob (observed injury) (PAPRH (corn poppy); applied alone at 8.75 g/ha) | PAPRH Ob (observed injury) (PAPRH (corn poppy); applied alone at 17.5 g/ha) | PAPRH Ob (observed injury) (PAPRH (corn poppy); applied alone at 35 g/ha) | PAPRH Ob (observed injury) (PAPRH (corn poppy); applied alone at 70 g/ha) | LAMPU Ob (observed injury) ([8]; applied alone at 1.1 g/ha) | LAMPU Ob (observed injury) ([8]; applied alone at 2.2 g/ha) | LAMPU Ob (observed injury) ([8]; applied alone at 4.4 g/ha) | LAMPU Ob (observed injury) ([8]; applied alone at 8.75 g/ha) | LAMPU Ob (observed injury) ([8]; applied alone at 17.5 g/ha) | LAMPU Ob (observed injury) ([8]; applied alone at 35 g/ha) | LAMPU Ob (observed injury) ([8]; applied alone at 70 g/ha)
